Like-named read-outs stand apart in the source and are kept apart here.
Tests used:
FAK kinase = FAK kinase (Homo sapiens, UniProt Q05397); experiment: FAK kinase activity inhibition assay, method A (HTRF) and method B (Lantha screen); format: biochemical
Procedure: The HTRF method was used to evaluate the inhibitory activity of the compounds against FAK kinase. […]. The reaction conditions were: FAK kinase at 0.1 ng/µL; ATP 10 µM; substrate concentration 1 µM. Compounds were serially diluted in DMSO and shaken on a shaker for 20 minutes. Prepare 2× kinase using 1× reaction buffer. Transfer 25 nL compound to a 384-well plate using Echo 655. Add 2.5 µL kinase per well. Seal the plate with sealing film, centrifuge at 1000 rpm for 60 seconds, and incubate at 25°C for 12 hours. Prepare 2× ATP/substrate mix using 1× enzyme reaction buffer and add 2.5 µL 2× ATP/substrate mix per well. Seal the plate with sealing film, centrifuge at 1000 rpm for 60 seconds, and incubate at 25°C for 50 minutes. Prepare 2×XL665 & antibody solution using HTRF detection buffer, and add 5 µL per well. Incubate at 25°C for 60 minutes. Read fluorescence at 620 nm (Cryptate) and 665 nm (XL665). Calculate the ratio per well (Ratio_665/620 nm). % Inhibition = 100% - [(Compound Ratio - Positive Control Ratio)/ (Negative Control Ratio - Positive Control Ratio)] × 100%. IC50 values (half-maximal inhibitory concentration) were calculated by nonlinear regression using GraphPad Prism 7.0. Y = Bottom + (Top - Bottom)/ (1 + 10^ ((LogIC50 - X) × Hill Slope)), where X is the log of compound concentration and Y is the % inhibition.
The Lantha screen assay was used to evaluate the FAK kinase inhibitory activity. Compounds were dissolved in 100% DMSO at 10 mM stock concentration. Prepare 1× kinase buffer (25 mM HEPES, pH 7.5, 0.01 mM Triton, 0.5 mM EGTA, 0.01% Brij-35). Dilute compounds in a gradient, and transfer 5 µL compound into the reaction plate. Prepare 2× kinase solution with 1× Kinase buffer. Add 5 µL kinase solution to compound and positive control wells, and 5 µL 1× Kinase buffer to negative control wells. Mix reaction plate by shaking. Prepare 4× ATP/Fluorescein-polyGT substrate mix with 1× Kinase buffer. Add 2.5 µL substrate solution to initiate the reaction. Shake and incubate at room temperature for 30 minutes. Prepare 2× detection reagent (2 nM antibody, 10 mM EDTA) and add 10 µL per well to stop the reaction. Briefly centrifuge, mix, and incubate for 60 minutes. Read fluorescence at 340 nm excitation and 520 nm/495 nm emission using EnVision. Collect data and calculate 520 nm/495 nm ratio. Calculate the inhibition percentage using the formula: % Inhibition = (Max - Sample Ratio)/(Max - Min) × 100, where min is the mean of negative control wells (no enzyme activity), and max is the mean of positive control wells (DMSO-inhibited conversion rate).Use XLFit Excel add-in version 5.4.0.8 to determine the IC50 values of each compound against the enzyme activity: Y = Bottom + (Top - Bottom)/(1 + (IC50/X)^HillSlope).

[1] = Pharmacokinetic study in rats; conditions: rat, plasma, po, 3 mg/kg
Procedure: Pharmacokinetic parameters were calculated by statistical moment method using WinNonLin 8.0 software, mainly including Tmax, T1/2, Cmax and AUC0-24h.
Animals: Three male SD rats weighing 200-220 g were used. After purchase, they were housed in the laboratory animal center for 2 days before experiment. […] Blood samples were collected at scheduled time points after oral gavage.
Vehicle: 0.4% ethanol + 0.4% Tween 80 + 99.2% (0.5% methylcellulose M450). Preparation of oral gavage solution: The compound was accurately weighed and dissolved in vehicle by ultrasonication for 5 min at room temperature to prepare 0.3 mg/mL drug solution.
Single compound administration was also used to study pharmacokinetics in rats.
Blood sample collection: After oral gavage, blood samples were collected from orbital sinus at 0.25, 0.5, 1, 2, 4, 8, 10 and 24 h. 50 µL plasma was mixed with 200 µL acetonitrile (containing 2 ng/mL verapamil as internal standard). The mixture was vortexed for 3 min, then centrifuged at 20000 rcf for 10 min at 4 °C. The supernatant was analyzed by LC-MS/MS.
Standard curves were established by accurately weighing and preparing compounds at different concentrations for mass spectrometric quantification. Compound concentrations in plasma samples were determined based on standard curves to obtain concentration-time profiles. All measurement data were collected and processed by relevant software. Pharmacokinetic parameters (including Tmax, T1/2, Cmax and AUC0-24h) were calculated by statistical moment method.

CDK7/CycH/MAT1 kinase = CDK7/CycH/MAT1 kinase (Homo sapiens, UniProt P50613); experiment: CDK7 kinase activity inhibition assay (ADP-Glo); format: biochemical
Chain of CDK7/CycH/MAT1 kinase (P50613 whole entry, species assumed): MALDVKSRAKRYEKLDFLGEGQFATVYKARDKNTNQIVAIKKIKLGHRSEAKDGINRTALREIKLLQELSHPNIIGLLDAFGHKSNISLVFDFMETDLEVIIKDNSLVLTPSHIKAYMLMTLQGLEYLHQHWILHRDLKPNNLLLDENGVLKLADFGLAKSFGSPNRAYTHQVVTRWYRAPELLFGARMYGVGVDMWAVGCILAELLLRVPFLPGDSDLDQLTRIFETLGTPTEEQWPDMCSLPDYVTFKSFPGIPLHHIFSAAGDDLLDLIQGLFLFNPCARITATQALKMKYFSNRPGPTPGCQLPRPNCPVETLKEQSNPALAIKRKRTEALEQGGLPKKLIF
Chain of CDK7/CycH/MAT1 kinase (P51946 whole entry partner, species assumed): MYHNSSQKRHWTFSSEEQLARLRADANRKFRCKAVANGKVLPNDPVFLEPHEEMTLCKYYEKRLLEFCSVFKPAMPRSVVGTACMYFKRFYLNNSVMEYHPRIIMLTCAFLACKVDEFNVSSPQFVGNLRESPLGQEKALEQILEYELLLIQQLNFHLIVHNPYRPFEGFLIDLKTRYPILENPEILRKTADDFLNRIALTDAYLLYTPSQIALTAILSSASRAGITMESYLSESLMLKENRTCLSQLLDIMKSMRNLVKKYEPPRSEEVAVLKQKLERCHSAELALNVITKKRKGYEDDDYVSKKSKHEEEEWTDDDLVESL
Chain of CDK7/CycH/MAT1 kinase (P51948 whole entry partner, species assumed): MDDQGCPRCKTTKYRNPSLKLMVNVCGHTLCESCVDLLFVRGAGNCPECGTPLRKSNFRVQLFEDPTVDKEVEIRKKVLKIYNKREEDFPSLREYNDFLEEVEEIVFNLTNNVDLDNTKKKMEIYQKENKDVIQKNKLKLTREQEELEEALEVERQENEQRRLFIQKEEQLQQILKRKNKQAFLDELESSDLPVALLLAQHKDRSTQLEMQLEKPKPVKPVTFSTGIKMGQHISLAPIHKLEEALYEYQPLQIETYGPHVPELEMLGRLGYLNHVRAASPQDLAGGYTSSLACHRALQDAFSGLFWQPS
Procedure: Measure compound inhibitory activity against CDK7/CycH/MAT1 kinase using ADP-Glo assay. 1× kinase reaction buffer was prepared (working concentrations: HEPES 50 mM, MgCl2 10 mM, Brij35 0.01%, DTT 2 mM). The kinase reaction conditions were as follows: Kinase concentration: 3.5 ng/µL; Substrate mixture working concentrations: ATP 30 µM, CDK substrate 0.1 mg/ mL. Compounds were serially diluted in DMSO and shaken on an orbital shaker for 20 minutes. 2× kinase solution was prepared using 1× kinase buffer. 1 µL of compound solution was transferred to a 384-well plate. 2 µL of kinase solution was added to each well of the reaction plate. The plate was sealed with adhesive film, centrifuged at 1000 rpm for 60 seconds, and incubated at 25°C for 10 minutes. 4× ATP&substrate mixture was prepared using 1× kinase buffer. 1 µL of 4× ATP&substrate mixture was added to the reaction plate. The plate was sealed with adhesive film, centrifuged at 1000 rpm for 60 seconds, and incubated at 25°C for 60 minutes. 4 µL of ADP-Glo reagent was transferred to the 384-well reaction plate, centrifuged at 1000 rpm for 1 minute, and incubated at 25°C for 40 minutes. 8 µL of Detection solution was transferred to the 384-well reaction plate, centrifuged at 1000 rpm for 1 minute, and incubated at 25°C for 40 minutes. Relative luminescence units (RLU) were measured using a BMG microplate reader, with signal intensity representing kinase activity level. The inhibition percentage was calculated as follows: % inhibition = 100% - [(Compound RLU - Positive Control RLU)/(Negative Control RLU - Positive Control RLU)] × 100%. The IC50 values (half-maximal inhibitory concentration) of compounds were determined by fitting the data to the following nonlinear regression equation using GraphPad Prism 7.0 software: Y = Bottom + (Top - Bottom)/(1 + 10^((LogIC50 - X) × Hill Slope)), where: X = log(compound concentration), Y = % inhibition.

[2] = Table 4, ATP 30 µM, read-out: CDK7 (IC50)

Chain of FAK kinase (Q05397 whole entry): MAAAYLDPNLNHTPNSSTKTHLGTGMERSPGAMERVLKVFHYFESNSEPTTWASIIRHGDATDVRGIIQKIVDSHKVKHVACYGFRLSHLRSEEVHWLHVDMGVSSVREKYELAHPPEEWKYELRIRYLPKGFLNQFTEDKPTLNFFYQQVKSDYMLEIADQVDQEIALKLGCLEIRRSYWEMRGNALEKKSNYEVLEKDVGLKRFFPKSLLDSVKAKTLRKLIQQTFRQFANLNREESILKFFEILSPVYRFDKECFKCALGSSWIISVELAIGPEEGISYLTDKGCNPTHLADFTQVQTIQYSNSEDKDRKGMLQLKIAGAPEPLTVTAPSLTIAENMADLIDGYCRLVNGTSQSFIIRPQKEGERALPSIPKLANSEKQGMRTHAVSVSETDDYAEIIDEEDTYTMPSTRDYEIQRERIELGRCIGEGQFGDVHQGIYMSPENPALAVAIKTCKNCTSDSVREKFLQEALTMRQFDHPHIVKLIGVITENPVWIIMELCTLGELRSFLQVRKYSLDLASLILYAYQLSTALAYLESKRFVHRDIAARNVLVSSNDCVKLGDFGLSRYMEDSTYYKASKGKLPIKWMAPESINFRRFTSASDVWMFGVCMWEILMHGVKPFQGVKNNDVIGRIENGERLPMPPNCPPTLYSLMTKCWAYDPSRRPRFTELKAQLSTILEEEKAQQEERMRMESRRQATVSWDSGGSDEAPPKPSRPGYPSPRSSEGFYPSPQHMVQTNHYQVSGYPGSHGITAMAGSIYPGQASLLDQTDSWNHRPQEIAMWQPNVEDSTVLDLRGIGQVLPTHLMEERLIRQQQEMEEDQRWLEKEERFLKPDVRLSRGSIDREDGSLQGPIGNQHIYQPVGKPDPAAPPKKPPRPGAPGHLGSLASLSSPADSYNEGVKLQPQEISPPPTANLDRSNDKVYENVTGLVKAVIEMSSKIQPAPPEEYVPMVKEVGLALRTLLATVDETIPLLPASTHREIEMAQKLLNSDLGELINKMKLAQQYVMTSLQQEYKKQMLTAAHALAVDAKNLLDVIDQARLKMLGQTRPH

Q: With `COc1cc2c(cc1Nc1ncc(Cl)c(Nc3ccccc3S(=O)(=O)C(C)C)n1)OC[C@@H]1CN(C3CCOCC3)CCN21` [Compound C1S] as the molecule, how does the IC50 (FAK kinase) read?
A: < 1 nM

Q: And the AUC(0-t) at 24 h [1]?
A: 136 ng·h/mL

Q: What about the Cmax [1] of the same molecule?
A: 61.8 ng/mL

Q: What about the Tmax [1] of the same molecule?
A: 0.83 h

Q: What about the half-life [1] of the same molecule?
A: 1.78 h

Q: With `COc1cc2c(cc1Nc1ncc(Cl)c(Nc3ccccc3S(=O)(=O)C(C)C)n1)OC[C@@H]1CN(C3CCN(C)CC3)CCN21` [Compound C2S] as the molecule, how does the IC50 (FAK kinase) read?
A: < 1 nM

Q: What about the AUC(0-t) at 24 h [1] of the same molecule?
A: 1970 ng·h/mL

Q: And the Cmax [1]?
A: 135 ng/mL

Q: What about the Tmax [1] of the same molecule?
A: 10 h

Q: What about the half-life [1] of the same molecule?
A: 9.2 h

Q: For `CNC(=O)c1ccccc1Nc1cc(Nc2cc3c(cc2OC)N2CCN(C4CCN(C)CC4)C[C@@H]2CO3)ncc1C(F)(F)F` [Compound D2R], which IC50 (FAK kinase) is on record?
A: < 1 nM

Q: What about the IC50 (CDK7/CycH/MAT1 kinase) of the same molecule?
A: < 15 nM

Q: With `CNC(=O)c1ccccc1Nc1cc(Nc2cc3c(cc2OC)N2CCN(C4CCN(C)CC4)C[C@H]2CO3)ncc1C(F)(F)F` [Compound D2S] as the molecule, how does the IC50 (FAK kinase) read?
A: < 0.5 nM

Q: And the IC50 (CDK7/CycH/MAT1 kinase; [2])?
A: < 15 nM

Q: And the AUC(0-t) at 24 h [1]?
A: 1470 ng·h/mL

Q: And the Cmax [1]?
A: 134 ng/mL

Q: And the Tmax [1]?
A: 3.33 h

Q: What about the half-life [1] of the same molecule?
A: 5.97 h

Q: What does the source list for `CNC(=O)c1ccccc1Nc1cc(Nc2cc3c(cc2OC)N2CCN(C4CN(C)C4)C[C@H]2CO3)ncc1C(F)(F)F` [Compound D4S]?
A: IC50 (FAK kinase): < 1 nM; IC50 (CDK7/CycH/MAT1 kinase; [2]): < 10 nM; AUC(0-t) at 24 h [1]: 1660 ng·h/mL; Cmax [1]: 241 ng/mL; Tmax [1]: 5.33 h; half-life [1]: 3.03 h

Source: patent EP4653444A1, “FUSED TRICYCLIC COMPOUND AS KINASE INHIBITOR” (Hangzhou Innogate Pharma Co., Ltd., priority 2023, dated 2024)
